Results published in patent US20260171190A1, “ASSESSMENT OF GR CELLULAR SIGNALING PATHWAY ACTIVITY USING MATHEMATICAL MODELLING OF TARGET GENE EXPRESSION” (priority 2021, published 2026).
Like-named read-outs stand apart in the source and are kept apart here.

System: GR cellular signaling pathway
Protocol: Triple Negative Breast cancer cell line (MDA-MB-231) treated for 4, 8, 12 hrs with vehicle, 100 nM dexamethasone, 100 nM dexamethasone and 100 nM mifrepristone (GCR antagonist), or 100 nM dexamethasone and 100 nM CORT108297 (GCR antagonist).
GR pathway activity scores are presented on a normalized 0-100 scale.

| Structure (SMILES) | antagonism of the dexamethasone effect on GR pathway activity | antagonism of the dexamethasone effect on GR pathway activity (MDA-MB-231, 100 nM dexamethasone and 100 nM antagonist, 4, 8, 12 hrs) |
| --- | --- | --- |
| CC#C[C@]1(O)CC[C@H]2[C@@H]3CCC4=CC(=O)CCC4=C3[C@@H](c3ccc(N(C)C)cc3)C[C@@]21C [Mifrepristone] | strong dexamethasone antagonist | – |
| CCOC[C@]12Cc3cnn(-c4ccc(F)cc4)c3C=C1CCN(S(=O)(=O)c1ccc(C(F)(F)F)cc1)C2 [CORT108297] | – | minimally effective |
